Test system: HCV
Test: HCV focus reduction assay
Type: cell-based, Hepatitis C virus (JFH-1)
Settings: for Fold Inhibition: inhibition of HCV infection; for Fold Inhibition / % of Mock: peptide approximately 20 μM, Huh-7.5.1 cells, 3 days; for % of Mock: number of HCV foci as % of mock (0.5% DMSO); for Fold inhibition of HCV infection: peptide library screen, approximately 20 μM; for 1/3 diluted / 1/9 diluted / No dilution: HCV foci; for 1/3 diluted: 1/3 of final concentration (6 μM); for 1/9 diluted: 1/9 of final concentration (2 μM); for No dilution: final concentration 17-20 μM, MOCK 53 ± 4
Protocol: To identify peptides that display antiviral activity against HCV infection, the peptide library was screened by an HCV focus reduction assay. The peptides were constituted in 100% DMSO at a final concentration 10 mg/mL, and stored in −20° C. The peptide stock solution was diluted 1:200 to a final concentration approximately 20 μM in complete DMEM growth medium containing 50 focus forming units (ffu) of HCV. The virus-peptide mixture was transferred to Huh-7.5.1 cells at a density of 8000 cells per well in a 96-well plate. After adsorption for 4 hours at 37° C., the inoculum was removed. The cells were washed 2 times, overlaid with 120 μL fresh growth medium and incubated at 37° C. After 3 days of culture, the cells were fixed with paraformaldehyde and immunostained with antibody against HCV nonstructural protein NS5A. The numbers of HCV foci were counted under fluorescent microscopy and the result is expressed as percentage (%) of mock with no peptide treatment but containing solvent 0.5% DMSO.
To determine whether the antiviral activity of peptide 1 is dependent on its primary amino acid sequence, four derivative peptides from peptide 1 were synthesized to a purity >95%. The four derivatives having the same composition of amino acids included (1) the reversed the sequence of peptide 1 (also called retro-peptide); (2) scrambled hydrophobic amino acids; (3) scrambled hydrophilic amino acids; and (4) a derivative in which the aspartic acid residues (D) were replaced with proline residues (P). The antiviral activity of the peptides was examined by HCV focus reduction assay at three peptide concentrations: 18 μM, 6 μM and 2 μM, as described above.

Sequence | Fold Inhibition | % of Mock | further results
APTLWARMILMTHFFSVL [Peptide 7331] | 2.2 fold | 45.2% | –
AYMNTPGLPVCQDHLEFW [Peptide 7146] | 2.5 fold | 40.5% | –
DAILHTPGCVPCVREGNA [Peptide 6957] | 4.7 fold | 21.4% | –
DDLVVICESAGVQEDAAS [Peptide 7317] | 3.8 fold | 26.2% | –
DQLEQALNCEIYGACYSI [Peptide 7334] | 3.5 fold | 28.6% | –
DSSVLCECYDAGCAWYEL [Peptide 7142] | 2.5 fold | 40.5% | –
DTEDVVCCSMSYSW [Peptide 7741] | 42.0 fold | 2.4% | Inhibition of HCV infection (cell culture model of HCV infection): strongly inhibit HCV infection; Fold inhibition of HCV infection: more than ten-fold
DVVCCSMSYSWTGAL [Peptide 7742] | 4.2 fold | 23.8% | –
EVFWAKHMWNFISGIQYL [Peptide 7177] | 4.2 fold | 23.8% | –
GAVYAFYGMWPLLLLLLA [Peptide 7038] | 5.3 fold | 19.0% | Fold inhibition of HCV infection: five-fold to ten-fold
GMWPLLLLLLALPQRAYA [Peptide 7039] | 3.2 fold | 31.0% | –
GNTLTCYIKARAACRAAG [Peptide 7313] | 2.2 fold | 45.2% | –
GPISYANGSGLDERPYCW [Peptide 6993] | 4.2 fold | 23.8% | –
GSGLDERPYCWHYPPRPC [Peptide 6994] | 3.0 fold | 33.3% | –
GVPPLRAWRHRARSVRAR [Peptide 7342] | 2.0 fold | 50.0% | –
GWAGWLLSPRGSRPSWGP [Peptide 6939] | 2.2 fold | 45.2% | –
GWFTAGYSGGDIYHSVSH [Peptide 7350] | 2.3 fold | 42.9% | –
HINSTALNCNESLNTGWL [Peptide 6986] | 2.5 fold | 40.5% | –
HPITKYIMTCMSADLEVV [Peptide 7160] | 2.6 fold | 38.1% | –
HTPVNSWLGNIIMFAPTL [Peptide 7329] | 2.1 fold | 47.6% | –
KFDSLVECIWDWIDRLWS (OTHER INFORMATION: A synthetic peptide) | – | – | 1/3 diluted: 50 ± 7; 1/9 diluted: 31 ± 3; No dilution: 1 ± 1
KWEYVVLLFLLLADARVC [Peptide 7028] | 2.1 fold | 47.6% | –
KWLCRIWSWISDVLDDFE (OTHER INFORMATION: A synthetic peptide) | – | – | 1/3 diluted: 8 ± 6; 1/9 diluted: 15 ± 6; No dilution: 0 ± 0
LAALAAYCLSTGCVV [Peptide 7730] | 4.7 fold | 21.4% | –
LASCRRLTDFAQGWGPIS [Peptide 6991] | 2.8 fold | 35.7% | –

Sequence | Fold Inhibition | % of Mock | further results
LEFWEGVFTGLTHIDAHF [Peptide 7148] | 3.0 fold | 33.3% | –
LELITSCSSNVSVAHDGA [Peptide 7323] | 2.3 fold | 42.9% | –
LPTTQLRRHIDLLVGSAT [Peptide 6962] | 2.6 fold | 38.1% | –
MWNFISGIQYLAGLSTLP [Peptide 7178] | 2.3 fold | 42.9% | –
MYVGGVEHRLEAACNWTR [Peptide 7016] | 6.0 fold | 16.7% | Fold inhibition of HCV infection: five-fold to ten-fold
NCNESLNTGWLAGLFYQH [Peptide 6987] | 2.8 fold | 35.7% | –
PAILSPGALVVGVVCAAI [Peptide 7195] | 2.3 fold | 42.9% | –
PCVIGGVGNNTLLCPTDC [Peptide 7007] | 3.0 fold | 33.3% | –
QIVGGVYLLPRRGPRLGV [Peptide 6930] | 2.2 fold | 45.2% | –
QPGYPWPLYGNEGCGWAG [Peptide 6937] | 2.0 fold | 50.0% | –
RAAGLQDCTMLVCGDDLV [Peptide 7315] | 2.0 fold | 50.0% | –
RHIDLLVGSATLCSALYV [Peptide 6963] | 3.2 fold | 31.0% | –
SIASWAIKWEYVVLLFLL [Peptide 7027] | 2.5 fold | 40.5% | –
SIWRDWVDLICEFLSDWK (OTHER INFORMATION: A synthetic peptide) | – | – | 1/3 diluted: 31 ± 2; 1/9 diluted: 16 ± 4; No dilution: 0 ± 0
SSGADTEDVVCCSMS [Peptide 7740] | 2.3 fold | 42.9% | –
SWLRPIWPWICEVLSDFK (OTHER INFORMATION: A synthetic peptide) | – | – | 1/3 diluted: 21 ± 8; 1/9 diluted: 41 ± 2; No dilution: 9 ± 3
TDFAQGWGPISYANGSGL [Peptide 6992] | 3.2 fold | 31.0% | –
TSTWVLVGGVLAAL (VTSTWVLVGGVLAAL) [Peptide 7729] | 8.4 fold | 11.9% | Fold inhibition of HCV infection: five-fold to ten-fold
TVTESDIRTEEAIYQCCD [Peptide 7304] | 2.8 fold | 35.7% | –
VSTATQTFLATCIN [Peptide 7725] | 2.5 fold | 40.5% | –
WMNSTGFTKVCGAPPCVI [Peptide 7005] | 6.0 fold | 16.7% | Fold inhibition of HCV infection: five-fold to ten-fold
WRHRARSVRARLLSRGGR [Peptide 7343] | 2.1 fold | 47.6% | –
WVLVGGVLAALAAYCLST [Peptide 7163] | 3.8 fold | 26.2% | –
YVSGMTTDNLKCPCQIPS [Peptide 7226] | 2.6 fold | 38.1% | –

Source: patent publication US20070073039A1, “Peptides that inhibit viral infections” (priority 2005, published 2007)
